Patent US20250154531A1, “METHODS FOR IMPROVED HOMOLOGOUS RECOMBINATION AND COMPOSITIONS THEREOF” (LIFE TECHNOLOGIES CORPORATION, priority 2017, published 2025)

Assays:
[1] = test system: genomic locus of beta-actin; assay: Insertion of puromycin-P2A-OFP into beta-actin locus in human primary T cells, OFP-positive cells by flow cytometry; format: cell-based; settings: 30 μM in culture medium after electroporation, 48 hours
Procedure: Human peripheral blood mononuclear cells (PBMCs) were isolated from peripheral blood using Ficoll-Paque PLUS density gradient according to manufacturer's instructions. The human primary T cells were then isolated using DYNABEADS™ UNTOUCHED™ Human T Cells Kit and expanded using OPTMIZER™ CTS™ T-Cell Expansion SFM supplemented with 200 IU/mL of IL-2. The activation and expansion of human T cells were carried out using DYNABEADS™ Human T-Expander CD3/CD28 kit. On day 3 of activation, T cells were harvested for transfection.
For transfection of primary T cells, 1×10^5 cells were used per NEON® electroporation with voltage set at 1700V, pulse width set at 20 ms, and the number of pulses set at 1, respectively. To evaluate the effects of chemical modification on HDR efficiency, phosphorothioate or amine-modified nucleotides were added at specific positions of the oligonucleotides during chemical synthesis. The resulting modified oligonucleotides were then used to amplify the donor DNA. […] Cells were analyzed at 48 hours post transfection.
Linear ds- or ss-DNA donor could be degraded in vivo by exonucleases. […] At 48 hours post transfection, the percentages of OFP-positive cells were determined by flow cytometric analysis. […]
The disruption of NHEJ repair pathway is known to improve HDR efficiency. […] At 48 hours post transfection, we analyzed the cells by flow cytometry.

β-actin = assay: One-step knock-in with two Cas9/gRNA complexes in primary T cells, knock-in efficiency; format: cell-based, human; settings: in media for two days after electroporation
Procedure: (§1) Human primary T cells were isolated and activated as in Example 10. On the third day after activation, cells were transfected with 1 μg TRUECUT™ Cas9 Protein v2 with 250 ng of β-actin gRNA, 1 μg TRUECUT™ Cas9 Protein v2 with 250 ng of a guide RNA targeting the T cell receptor (TRAC gRNA), and 1 μg OFP-Puro in electroporation buffer. Electroporation was performed using the NEON® Transfection System, program 24. After electroporation, the cells were cultured in media containing NHEJ inhibitor (Ku0060648) for two days, then analyzed via FACS analysis for SSC-A and OFP.

β-actin in NK-92 = assay: One-step knock-in of OFP with NHEJ inhibitor in NK-92 cells; format: cell-based; settings: NK-92, in media for two days after transfection
Procedure: (§2) Various cell types (NK-92, THP-1, Jurkat) were transfected with 1 μg TRUECUT™ Cas9 Protein v2 and 250 ng of β-actin gRNA, and 0.25 μg, 0.5 μg, or 1 μg OFP-Puro in electroporation buffer. Electroporation was performed using the NEON® Transfection System. After electroporation, the cells were cultured in media containing NHEJ inhibitor (Ku0060648) for two days, then analyzed via FACS analysis for SSC-A and OFP.

[2] = test system: T cell receptor (TRAC gRNA); assay: One-step knock-in with two Cas9/gRNA complexes in primary T cells, knock-out efficiency; format: cell-based, human; settings: in media for two days after electroporation
Procedure: as §1

β-actin in THP-1 = assay: One-step knock-in of OFP with NHEJ inhibitor in THP-1 cells; format: cell-based; settings: THP-1, in media for two days after transfection
Procedure: as §2

β-actin in Jurkat = assay: One-step knock-in of OFP with NHEJ inhibitor in Jurkat cells; format: cell-based; settings: in media for two days after transfection
Procedure: as §2

SMILES	increase of the percentage of OFP-positive cells ([1]; amine-modified donor DNA) [fold]	increase of the percentage of OFP-positive cells ([1]; unmodified donor DNA)	knock-in efficiency (Q3) (β-actin)	knock-in efficiency (β-actin in NK-92)	knock-out efficiency (Q3 and Q4) [2]	knock-in efficiency (β-actin in THP-1)	knock-in efficiency (β-actin in Jurkat)
O=c1cc(N2CCOCC2)oc2c1ccc1ccccc12 [Nu7026, 2-(4-Morpholinyl)-4H-naphthol[1,2-b]pyran-4-one]	~2	approximately 5 fold					
CCN1CCN(CC(=O)Nc2ccc(-c3cccc4c(=O)cc(N5CCOCC5)oc34)c3sc4ccccc4c23)CC1 [Ku-0060648, 4-Ethyl-N-[4-[2-(4-morpholinyl)-4-oxo-4H-1-benzopyran-8-yl]-1-dibenzothienyl]-1-piperazineacetamide]			increased knock-in efficiency	increased knock-in efficiency	without affecting knock-out efficiency	increased knock-in efficiency	increased knock-in efficiency
